Results taken from patent EP1023075B1, “LIQUID PRESENTATIONS OF OXAZAPHOSPHORINE-CONTAINING PHARMACEUTICAL PRODUCTS” (STADA ARZNEIMITTEL AG, priority 1997, dated 1999).
≈ marks a conversion by molar mass, not a printed value. Like-named read-outs stand apart in the source and are kept apart here.

Assays:
[1] = Solubility trials: saturation concentration of the oxazaphosphorine in water / aqueous urea solution; conditions: for pH-Wert: saturated Ifosfamid solution
[2] = cited from earlier work
[3] = water, Sättigungskonzentration in Wasser, in Wasser

O=P1(N(CCCl)CCCl)NCCCO1 (stereo not shown) [Cyclophosphamid]
solubility ([1]; aqueous urea solution, Cyclophosphamid-Endkonzentration, Harnstoff-Startkonzentration 10 % (G/V), Harnstoff-Endkonzentration 9,1 % (G/G)): 87 mg/mL (≈ 333 mM) | solubility ([1]; aqueous urea solution, Cyclophosphamid-Endkonzentration, Harnstoff-Startkonzentration 20 % (G/V), Harnstoff-Endkonzentration 17,0 % (G/G)): 112 mg/mL (≈ 429 mM) | solubility ([1]; aqueous urea solution, Cyclophosphamid-Endkonzentration, Harnstoff-Startkonzentration 30 % (G/V), Harnstoff-Endkonzentration 24,2 % (G/G)): 136 mg/mL (≈ 521 mM) | solubility ([1]; aqueous urea solution, Cyclophosphamid-Endkonzentration, Harnstoff-Startkonzentration 40 % (G/V), Harnstoff-Endkonzentration 30,3 % (G/G)): 172 mg/mL (≈ 659 mM) | solubility ([1]; aqueous urea solution, Cyclophosphamid-Endkonzentration, Harnstoff-Startkonzentration 45 % (G/V), Harnstoff-Endkonzentration 37,3 % (G/G)): 170 mg/mL (≈ 651 mM) | solubility ([1]; aqueous urea solution, Cyclophosphamid-Endkonzentration, Harnstoff-Startkonzentration 50 % (G/V), Harnstoff-Endkonzentration 45,2 % (G/G)): 152 mg/mL (≈ 582 mM) | solubility ([1]; aqueous urea solution, Cyclophosphamid-Sättigungskonzentration, with Harnstoff, up to Harnstoffstartkonzentration 50% (G/V)): ≤ 170 mg/mL | solubility ([1]; water, Cyclophosphamid-Endkonzentration, Harnstoff-Startkonzentration 0 % (G/V), Harnstoff-Endkonzentration 0 % (G/G)): 61 mg/mL (≈ 234 mM) | solubility [1, 3]: ~60 mg/mL (≈ 230 mM) | Wirkstoffverlust ([2]; 2%ige (G/V) wäßrige Cyclophosphamidlösungen, 2 bis 8°C, nach 17 Wochen, 171360 min): ≤ 10% | Wirkstoffverlust ([2]; 2%ige (G/V) wäßrige Cyclophosphamidlösungen, Raumtemperatur, nach 7 Tagen): ≤ 10%

O=P1(NCCCl)OCCCN1CCCl (stereo not shown) [Ifosfamid]
solubility ([1]; aqueous urea solution, Ifosfamid-Endkonzentration, Harnstoff-Startkonzentration 1,0 % (G/V), Harnstoff-Endkonzentration 0,8 % (G/G)): 128 mg/mL (≈ 490 mM) | solubility ([1]; aqueous urea solution, Ifosfamid-Endkonzentration, Harnstoff-Startkonzentration 2,0 % (G/V), Harnstoff-Endkonzentration 1,6 % (G/G)): 132 mg/mL (≈ 506 mM) | solubility ([1]; aqueous urea solution, Ifosfamid-Endkonzentration, Harnstoff-Startkonzentration 3,0 % (G/V), Harnstoff-Endkonzentration 2,4 % (G/G)): 139 mg/mL (≈ 532 mM) | solubility ([1]; aqueous urea solution, Ifosfamid-Endkonzentration, Harnstoff-Startkonzentration 4,0 % (G/V), Harnstoff-Endkonzentration 3,2 % (G/G)): 147 mg/mL (≈ 563 mM) | solubility ([1]; aqueous urea solution, Ifosfamid-Endkonzentration, Harnstoff-Startkonzentration 5,0 % (G/V), Harnstoff-Endkonzentration 3,8 % (G/G)): 153 mg/mL (≈ 586 mM) | solubility ([1]; aqueous urea solution, Ifosfamid-Endkonzentration, Harnstoff-Startkonzentration 6,0 % (G/V), Harnstoff-Endkonzentration 4,4 % (G/G)): 159 mg/mL (≈ 609 mM) | solubility ([1]; aqueous urea solution, Ifosfamid-Endkonzentration, Harnstoff-Startkonzentration 7,0 % (G/V), Harnstoff-Endkonzentration 4,6 % (G/G)): 169 mg/mL (≈ 647 mM) | solubility ([1]; aqueous urea solution, Ifosfamid-Endkonzentration, Harnstoff-Startkonzentration 8,0 % (G/V), Harnstoff-Endkonzentration 5,0 % (G/G)): 172 mg/mL (≈ 659 mM) | solubility ([1]; aqueous urea solution, Ifosfamid-Endkonzentration, Harnstoff-Startkonzentration 9,0 % (G/V), Harnstoff-Endkonzentration 5,1 % (G/G)): 173 mg/mL (≈ 663 mM) | solubility ([1]; aqueous urea solution, Ifosfamid-Endkonzentration, Harnstoff-Startkonzentration 10,0 % (G/V), Harnstoff-Endkonzentration 6,6 % (G/G)): 370 mg/mL (≈ 1420 mM) | solubility ([1]; aqueous urea solution, Ifosfamid-Endkonzentration, Harnstoff-Startkonzentration 12,5 % (G/V), Harnstoff-Endkonzentration 7,0 % (G/G)): 412 mg/mL (≈ 1580 mM) | solubility ([1]; aqueous urea solution, Ifosfamid-Endkonzentration, Harnstoff-Startkonzentration 15 % (G/V), Harnstoff-Endkonzentration 12,2 % (G/G)): 462 mg/mL (≈ 1770 mM) | solubility ([1]; aqueous urea solution, Ifosfamid-Endkonzentration, Harnstoff-Startkonzentration 20 % (G/V), Harnstoff-Endkonzentration 15,8 % (G/G)): 483 mg/mL (≈ 1850 mM) | solubility ([1]; aqueous urea solution, Ifosfamid-Endkonzentration, Harnstoff-Startkonzentration 30 % (G/V), Harnstoff-Endkonzentration 24,2 % (G/G)): 521 mg/mL (≈ 2000 mM) | solubility ([1]; aqueous urea solution, Ifosfamid-Endkonzentration, Harnstoff-Startkonzentration 40 % (G/V), Harnstoff-Endkonzentration 34,3 % (G/G)): 462 mg/mL (≈ 1770 mM) | solubility ([1]; aqueous urea solution, Ifosfamid-Endkonzentration, Harnstoff-Startkonzentration 50 % (G/V), Harnstoff-Endkonzentration 42,1 % (G/G)): 443 mg/mL (≈ 1700 mM) | solubility ([1]; aqueous urea solution, Ifosfamid-Sättigungskonzentration, bei geeigneter Harnstoffkonzentration): ~500 mg/mL (≈ 1920 mM) | pH-Wert ([1]; Harnstoff-Startkonzentration 0 % (G/V)): 5,2 | pH-Wert ([1]; Harnstoff-Startkonzentration 1,0 % (G/V)): 5,0 | pH-Wert ([1]; Harnstoff-Startkonzentration 2,0 % (G/V)): 5,0 | pH-Wert ([1]; Harnstoff-Startkonzentration 3,0 % (G/V)): 5,0 | pH-Wert ([1]; Harnstoff-Startkonzentration 4,0 % (G/V)): 5,1 | pH-Wert ([1]; Harnstoff-Startkonzentration 5,0 % (G/V)): 5,1 | pH-Wert ([1]; Harnstoff-Startkonzentration 6,0 % (G/V)): 5,1 | pH-Wert ([1]; Harnstoff-Startkonzentration 7,0 % (G/V)): 5,1 | pH-Wert ([1]; Harnstoff-Startkonzentration 8,0 % (G/V)): 5,1 | pH-Wert ([1]; Harnstoff-Startkonzentration 9,0 % (G/V)): 5,2 | pH-Wert ([1]; Harnstoff-Startkonzentration 10,0 % (G/V)): 5,1 | pH-Wert ([1]; Harnstoff-Startkonzentration 12,5 % (G/V)): 5,0 | pH-Wert ([1]; Harnstoff-Startkonzentration 15 % (G/V)): 5,0 | pH-Wert ([1]; Harnstoff-Startkonzentration 20 % (G/V)): 5,0 | pH-Wert ([1]; Harnstoff-Startkonzentration 30 % (G/V)): 5,0 | pH-Wert ([1]; Harnstoff-Startkonzentration 40 % (G/V)): 5,0 | pH-Wert ([1]; Harnstoff-Startkonzentration 50 % (G/V)): 5,0 | solubility ([1]; water, Ifosfamid-Endkonzentration, Harnstoff-Startkonzentration 0 % (G/V), Harnstoff-Endkonzentration 0 % (G/G)): 118 mg/mL (≈ 452 mM) | solubility [1, 3]: ~120 mg/mL (≈ 460 mM) | Wirkstoffverlust ([2]; 5%ige und 10%ige (G/V) wäßrige Ifosfamidlösungen, 2 bis 8°C, nach 17 Wochen, 171360 min): ≤ 10% | Wirkstoffverlust ([2]; 5%ige und 10%ige (G/V) wäßrige Ifosfamidlösungen, Raumtemperatur, nach 6 Wochen, 60480 min): ≤ 10%
